Tests used:
[1] = Sensory evaluation of degradation component-added soymilk I ((E)-2-nonenal 5 ppb); conditions: average panel score
Protocol: (§1) To commercially available soymilk (“Delicious Unadjusted Soymilk” manufactured by Kikkoman Corporation), each degradation component was added to prepare degradation component-added soymilks at the concentrations listed in Table 23. To these degradation component-added soymilks, 1,4-dioxacycloheptadecan-5,17-dione was added at the concentrations listed in Table 23 to confirm the intensity of the off-flavor (masking effect) and the intensity of the masking components (impact on the flavor of the soymilk itself) for each sample.
(§2) Eight experienced panelists were selected to conduct a sensory evaluation similar to that of Example 1. […]

[2] = Sensory evaluation of aqueous solution V containing 1-octen-3-ol 10 ppb: off-flavor intensity and masking component intensity; conditions: 1-octen-3-ol 10 ppb, average score 0-4
How it was run: (§3)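 Relative off-flavor ratings (0–4) used the unmasked degradant solution as 4 and pure ion-exchanged water as 0. Intensity of the added nootkatone was scored absolutely, 0–4, by eight experienced panelists.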

[3] = Sensory evaluation of degradation component-added soymilk II (1-octen-3-ol 500 ppb); conditions: average panel score
Protocol: as §1, §2

[4] = Sensory evaluation of aqueous solution III containing 1-octen-3-one 1 ppb: off-flavor intensity and masking component intensity; conditions: 1-octen-3-one 1 ppb, average score 0-4
How it was run: as §3

[5] = Sensory evaluation of aqueous solution I containing (E)-2-nonenal 1 ppb: off-flavor intensity and masking component intensity; conditions: (E)-2-nonenal 1 ppb, average score 0-4
How it was run: as §3

[6] = Sensory evaluation of aqueous solution II containing (E)-2-octenal 10 ppb: off-flavor intensity and masking component intensity; conditions: (E)-2-octenal 10 ppb, average score 0-4
How it was run: as §3

[7] = Sensory evaluation of aqueous solution VI containing 1,5-octadien-3-ol 10 ppb: off-flavor intensity and masking component intensity; conditions: aqueous solution VI, 1,5-octadien-3-ol 10 ppb, average score 0-4
How it was run: as §3

[8] = Overall conclusion of the sensory evaluation across aqueous solutions I to VI
How it was run: as §3

[9] = Overall conclusion of the sensory evaluation across soymilks I and II
Protocol: as §1
Eight experienced panelists were selected to conduct a sensory evaluation similar to that of Example 1.
The same method as in Example 20 was used to confirm the intensity of the off-flavor (masking effect) derived from unsaturated fatty acids by α-methyl ionone and the intensity of the masking components (impact on the flavor of the soymilk itself).
The same method as in Example 20 was used to confirm the intensity of the off-flavor (masking effect) derived from unsaturated fatty acids by menthyl 3-hydroxybutyrate and the intensity of the masking components (impact on the flavor of the soymilk itself).

[10] = Sensory evaluation of aqueous solution IV containing 1,5-octadien-3-one 100 ppt: off-flavor intensity and masking component intensity; conditions: aqueous solution IV, 1,5-octadien-3-one 100 ppt, average score 0-4
How it was run: as §3

CCC(=O)/C=C/C1C(C)=CCCC1(C)C (stereo not drawn) [α-Methyl Ionone, α-methyl ionone]
Masking Component Intensity ([1]; 1 ppb added): 0.8 | Off-Flavor Intensity ([1]; 1 ppb added): 2.6 | Masking Component Intensity ([1]; 1 ppm added): 3.9 | Off-Flavor Intensity ([1]; 1 ppm added): 0.5 | Masking Component Intensity ([1]; 10 ppb added): 1.9 | Off-Flavor Intensity ([1]; 10 ppb added): 1.9 | Masking Component Intensity ([1]; 100 ppb added): 3.1 | Off-Flavor Intensity ([1]; 100 ppb added): 1.0 | Masking Component Intensity ([1]; 100 ppt added): 0.1 | Off-Flavor Intensity ([1]; 100 ppt added): 3.0 | Off-Flavor Intensity ([2]; 0.01 ppt added): 3.6 points | Off-Flavor Intensity ([2]; 0.1 ppt added): 3.3 points | Off-Flavor Intensity ([2]; 1 ppb added): 1.4 points | Off-Flavor Intensity ([2]; 1 ppm added): 0.1 points | Off-Flavor Intensity ([2]; 1 ppt added): 2.8 points | Off-Flavor Intensity ([2]; 10 ppb added): 0.8 points | Off-Flavor Intensity ([2]; 10 ppt added): 2.4 points | Off-Flavor Intensity ([2]; 100 ppb added): 0.5 points | Off-Flavor Intensity ([2]; 100 ppt added): 1.8 points | Masking Component Intensity ([3]; 1 ppb added): 0.8 | Off-Flavor Intensity ([3]; 1 ppb added): 2.1 | Masking Component Intensity ([3]; 1 ppm added): 3.9 | Off-Flavor Intensity ([3]; 1 ppm added): 0.4 | Masking Component Intensity ([3]; 10 ppb added): 1.4 | Off-Flavor Intensity ([3]; 10 ppb added): 1.3 | Masking Component Intensity ([3]; 100 ppb added): 2.8 | Off-Flavor Intensity ([3]; 100 ppb added): 0.9 | Masking Component Intensity ([3]; 100 ppt added): 0.4 | Off-Flavor Intensity ([3]; 100 ppt added): 2.5 | Off-Flavor Intensity ([4]; 0.01 ppt added): 3.4 points | Off-Flavor Intensity ([4]; 0.1 ppt added): 3.1 points | Off-Flavor Intensity ([4]; 1 ppb added): 1.4 points | Off-Flavor Intensity ([4]; 1 ppm added): 0.3 points | Off-Flavor Intensity ([4]; 1 ppt added): 2.6 points | Off-Flavor Intensity ([4]; 10 ppb added): 1.3 points | Off-Flavor Intensity ([4]; 10 ppt added): 2.3 points | Off-Flavor Intensity ([4]; 100 ppb added): 0.3 points | Off-Flavor Intensity ([4]; 100 ppt added): 1.9 points | Off-Flavor Intensity ([5]; 0.01 ppt added): 3.9 points | Off-Flavor Intensity ([5]; 0.1 ppt added): 3.3 points | Off-Flavor Intensity ([5]; 1 ppb added): 1.5 points | Off-Flavor Intensity ([5]; 1 ppm added): 0.3 points | Off-Flavor Intensity ([5]; 1 ppt added): 2.9 points | Off-Flavor Intensity ([5]; 10 ppb added): 1.0 points | Off-Flavor Intensity ([5]; 10 ppt added): 2.4 points | Off-Flavor Intensity ([5]; 100 ppb added): 0.3 points | Off-Flavor Intensity ([5]; 100 ppt added): 1.8 points | Off-Flavor Intensity ([6]; 0.01 ppt added): 3.1 points | Off-Flavor Intensity ([6]; 0.1 ppt added): 2.8 points | Off-Flavor Intensity ([6]; 1 ppb added): 1.0 points | Off-Flavor Intensity ([6]; 1 ppm added): 0.3 points | Off-Flavor Intensity ([6]; 1 ppt added): 2.1 points | Off-Flavor Intensity ([6]; 10 ppb added): 0.8 points | Off-Flavor Intensity ([6]; 10 ppt added): 1.5 points | Off-Flavor Intensity ([6]; 100 ppb added): 0.4 points | Off-Flavor Intensity ([6]; 100 ppt added): 1.1 points | Off-Flavor Intensity ([7]; 0.01 ppt added): 3.5 points | Off-Flavor Intensity ([7]; 0.1 ppt added): 3.3 points | Off-Flavor Intensity ([7]; 1 ppb added): 1.4 points | Off-Flavor Intensity ([7]; 1 ppm added): 0.5 points | Off-Flavor Intensity ([7]; 1 ppt added): 2.8 points | Off-Flavor Intensity ([7]; 10 ppb added): 1.4 points | Off-Flavor Intensity ([7]; 10 ppt added): 2.4 points | Off-Flavor Intensity ([7]; 100 ppb added): 0.6 points | Off-Flavor Intensity ([7]; 100 ppt added): 2.0 points | concentration that masks the off-flavor and does not affect the flavor of the food and/or beverage itself, lower limit [8]: ≥ 0.1 ppt | concentration that masks the off-flavor and does not affect the flavor of the food and/or beverage itself, upper limit [8]: ≤ 100 ppb | concentration that masks the off-flavor and does not affect the flavor of the soymilk itself, lower limit [9]: ≥ 100 ppt | concentration that masks the off-flavor and does not affect the flavor of the soymilk itself, upper limit [9]: ≤ 100 ppb | Off-Flavor Intensity ([10]; 0.01 ppt added): 3.4 points | Off-Flavor Intensity ([10]; 0.1 ppt added): 3.3 points | Off-Flavor Intensity ([10]; 1 ppb added): 1.5 points | Off-Flavor Intensity ([10]; 1 ppm added): 0.4 points | Off-Flavor Intensity ([10]; 1 ppt added): 2.9 points | Off-Flavor Intensity ([10]; 10 ppb added): 1.4 points | Off-Flavor Intensity ([10]; 10 ppt added): 2.6 points | Off-Flavor Intensity ([10]; 100 ppb added): 0.8 points | Off-Flavor Intensity ([10]; 100 ppt added): 1.9 points

— patent US20250176599A1, “FLAVOR COMPOSITION AND FOOD AND BEVERAGE” (TAKASAGO INTERNATIONAL CORPORATION, priority 2021, published 2025)
